This note sets out measurements from US5403824A, “Methods for the treatment of osteoporosis” (The Procter & Gamble Company, priority 1993, dated 1995).

Assay [1] relates to human subject with postmenopausal osteoporosis or low bone mass. The experiment in a line: treatment of human subject with osteoporosis, vertebral density by dual-energy photon absorptiometry. Format: in vivo. How it is done:
A human subject weighing about 60 kg (132 lbs), suffering from postmenopausal osteoporosis, is treated by a method of this invention. Specifically, for two years, the enkephalin-degrading enzyme inhibitor DL-3-mercapto-2-benzylpropanoylglycine is administered orally, in a cyclical regimen, where each cycle consists of an active period of 28 days during which a tablet containing 160 mg of said inhibitor is administered each day, followed by a non-active period of 28 days during which the subject receives a daily supplement of calcium (1,000 mg/day), with repeat of cycle.
A human subject weighing about 60 kg (132 lbs), suffering from postmenopausal osteoporosis, is treated by a method of this invention. Specifically, for two years, the compound H-Tyr-D-Ala-Gly-Phe-D-Leu-OH ("DADLE") is administered to the subject, in a cyclical regimen, where each cycle consists of an active period of 28 days during which a solution containing 30 mg of DADLE is administered intravenously every day, followed by a non-active period of 28 days during which the patient receives a daily supplement of calcium (1,000 mg/day), with repeat of cycle.
A human subject weighing about 60 kg (132 lbs), suffering from postmenopausal osteoporosis, is treated by a method of this invention. Specifically, for two years, an enkephalin of the formula Tyr-D-Cys(S-t-butylthioether)-Gly-Phe-Leu-Thr(O-t-butylether) ("BUBUC") is administered to the subject, in a cyclical regimen, where each cycle consists of an active period of 28 days during which a solution containing 30 mg of BUBUC is intravenously administered each day, followed by a non-active period of 28 days during which the patient receives a daily supplement of calcium (1,000 mg/day), with repeat of cycle.
A human subject weighing about 60 kg (132 lbs), suffering from postmenopausal osteoporosis, is treated by a method of this invention. Specifically, for two years, the enkephalin secretagogue Tyr-Arg^1, is administered to the subject, in a cyclical regimen, where each cycle consists of an active period of 28 days during which a solution containing 30 mg of Tyr-Arg is intravenously administered each day, followed by a non-active period of 28 days during which the subject receives a daily supplement of calcium (1,000 mg/day), with repeat of cycle. […]
A human subject weighing about 60 kg (132 lbs), suffering from postmenopausal osteoporosis, is treated by a method of this invention. Specifically, each day for five years, the subject is administered 3 tablets, comprised as follows.
A human subject weighing about 60 kg (132 lbs) is evaluated approximately four years after spontaneous menopause, and is found to have low bone mass. The subject is then treated by a method of this invention to treat osteoporosis. Specifically, once each month for five years, the subject is administered, via intravenous injection, 5 ml of a solution comprised as follows.

Assay [2] relates to enkephalinase. Put plainly: enkephalinase inhibition, cleavage of N-suc-Ala-Ala-Phe-AMC by osteoblast-like cells, fluorescence. Format: biochemical, rat or mouse. The note with it: substrate N-succinyl-alanyl-alanylphenylalanyl-7-amido-4-methyl coumarin, 37° C., one hr. From the text:
One such model is described by Spillantini et al., 12 Eur. J. Pharmacol 142-150 (1986), which has been modified by Applicants. (Applicants' modification consists of using osteoblast-like cells, rather than human serum, as the source of enkephalin-degrading enzymes.) This model measures inhibition of the enkephalin-degrading enzyme "enkephalinase". According to Applicants' modified method, the source of the enkephalin-degrading enzymes i s rat osteoblast-like cells or mouse osteoblast-like cells (MC3T3-E1 cells). The substrate used is N-succinyl-alanyl-alanyl-phenylalanyl-7-amido-4-methyl coumarin (hereafter N-suc-Ala-Ala-Phe-AMC), which is known to be cleaved at the Ala-Phe peptide bond by enkephalinase. […] Aminopeptidase, which is known to specifically cleave only Phe-AMC (at the Phe-AM(peptide bond), is then added to the sample. Cleavage by aminopeptidase yields the metabolites AMC (fluorescent) and Phe. Fluorescence is then measured and is directly proportional to the amount of substrate degraded by enkephalinase.
Specifically, a test sample (containing enzyme and a putative enkephalinase inhibitor) and a control sample (containing only enzyme) are equilibrated. A quantified amount of substrate is then added to both samples. […] Fluorescence of the samples is then measured, greater fluorescence corresponding to greater degradation of the substrate by enkephalinase. […]

Each structure is given as a SMILES string.

Take `O=C(O)CNC(=O)C(CS)Cc1ccccc1` (racemic) [DL-3-mercapto-2-benzyl-propanoylglycine]: the “density of vertebrae / bone mass” value is “no significant loss in bone mass has occurred” in assay [1] (Example 7: 3 tablets of 50.0 mg each day for five years) and “an increase in bone mass” in assay [1] (oral tablet 160 mg daily, 28 days active / 28 days calcium, two years). In addition, in assay [2], the “inhibition of substrate degradation by enkephalinase (fluorescence vs control)” value was “significantly inhibited substrate degradation by enkephalinase”.
